{"source": "patent US5175181A", "about": "“Imidazolyl/imidazolylalkyl-N-terminal amino hydroxy” (G. D. Searle & Co., priority 1991, dated 1992)", "origin": "cited, not measured here", "key": {"[1]": {"test_system": "aspartyl proteases such as pepsin, cathepsin D and renin", "details": "Umezawa et al, J. Antibiot. 1970"}, "hog renin": {"test_system": "hog renin", "details": "after injection of hog renin into nephrectomized rats; Gross et al, Science 1971"}}, "note": "Square brackets hold non-standard residues; d marks the D form. Peptide text beside a SMILES is read from it. * marks the point of attachment. Sta = CC(C)C[C@H](N)[C@@H](O)CC(=O)O; Isovaleryl = CC(C)CC(=O)*", "data": [{"compound": "CC(C)CC(=O)N[C@H](C(=O)N[C@H](C(=O)N[C@@H](CC(C)C)[C@@H](O)CC(=O)N[C@@H](C)C(=O)N[C@@H](CC(C)C)[C@@H](O)CC(=O)O)C(C)C)C(C)C", "note": "[pepstatin] (Isovaleryl-VV[Sta]A[Sta]-OH)", "values": [{"measurement": "inhibition of aspartyl proteases", "setting": "[1]", "result": "inhibitor of aspartyl proteases"}, {"measurement": "blood pressure in vivo", "setting": "hog renin", "result": "reduce blood pressure"}]}]}
